Data reported in paper PMC8555546, “Conductance stability and Na+ interaction with Shab K+ channels under low K+ conditions” (Channels, 2021).
pKd: −log10 of the molar value.

Molecular target: T1, Shab K+ channel (dShab 11) (Drosophila melanogaster, UniProt P17970)
T1 construct: Shab cDNA (dShab 11) by recombinant baculovirus in Sf9 insect cells; homotetramer
T1 sequence (P17970 1-1015): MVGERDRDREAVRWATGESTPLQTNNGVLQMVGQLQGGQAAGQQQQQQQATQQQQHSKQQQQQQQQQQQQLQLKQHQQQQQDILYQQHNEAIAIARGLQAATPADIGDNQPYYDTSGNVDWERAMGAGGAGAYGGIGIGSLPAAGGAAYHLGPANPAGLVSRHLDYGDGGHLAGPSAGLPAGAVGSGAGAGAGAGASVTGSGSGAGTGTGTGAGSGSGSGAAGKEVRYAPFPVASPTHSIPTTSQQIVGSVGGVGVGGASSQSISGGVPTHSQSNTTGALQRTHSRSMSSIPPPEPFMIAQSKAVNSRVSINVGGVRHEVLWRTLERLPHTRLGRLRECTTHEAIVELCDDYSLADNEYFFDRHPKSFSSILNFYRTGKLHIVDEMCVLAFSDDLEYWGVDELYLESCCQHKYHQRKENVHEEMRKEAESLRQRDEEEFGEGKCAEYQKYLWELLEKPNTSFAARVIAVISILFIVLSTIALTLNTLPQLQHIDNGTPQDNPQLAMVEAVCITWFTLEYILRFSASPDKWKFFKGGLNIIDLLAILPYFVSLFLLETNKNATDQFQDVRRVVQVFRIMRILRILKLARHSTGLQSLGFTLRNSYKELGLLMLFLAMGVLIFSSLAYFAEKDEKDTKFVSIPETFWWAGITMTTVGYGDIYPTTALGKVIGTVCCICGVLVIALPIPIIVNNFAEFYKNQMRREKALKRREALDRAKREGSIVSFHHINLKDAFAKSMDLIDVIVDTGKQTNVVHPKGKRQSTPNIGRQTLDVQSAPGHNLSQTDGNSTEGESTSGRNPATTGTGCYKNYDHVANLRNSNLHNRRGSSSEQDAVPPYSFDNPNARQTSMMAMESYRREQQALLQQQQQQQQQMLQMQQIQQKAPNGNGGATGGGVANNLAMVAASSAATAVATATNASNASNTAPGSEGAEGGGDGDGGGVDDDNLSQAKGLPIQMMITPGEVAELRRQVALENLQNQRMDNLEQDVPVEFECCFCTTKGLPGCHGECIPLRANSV
Assay: whole-cell patch clamp, block of K+ current, Michaelis-Menten fit
Assay type: cell-based

- pKd: 1.97
SMILES: CC[N+](CC)(CC)CC [TEA]
